Measurements published in US9533040B2, “Inhibition of human immunodeficiency virus integrase reaching dimer formation utilizing single-chain variable antibodies” (priority 2010, dated 2017).

B1: mAb33: monoclonal antibody specific for the CTD of HIV IN; single chain Fv sequence SEQ ID NO:194 (protein, listed as Mus musculus)
scFv: MKYLLPTAAAGLLLLAAQPAMAMGHHHHHHHHHHSSGHIDDDDKHMDIQMTQSPSSLSASLGGKVTITCKASQDIYKYIAWYQHKPGKGPRLLIHYTSTLQPGIPSRFSGSGSGRDYSFSISNLEPEDIATYYCLQYDNLWTFGGGTKLEIKRADAAPTVSIFPPSSKLGPGGGGSGGGGSGGGGSELGRSEVKLVESGGGLVKPGGSLKLSCAASGFSFSSYAMSWVRQTPEKRLEWVASISSGGNTYYPDSVKGRFTISRDNARNILYLQMSSLRSEDTAMYYCARLDTTVEGDWYFDVWGAGTTLTVSS
B2: mAb17: monoclonal antibody specific for the NTD of HIV IN; single chain Fv sequence SEQ ID NO:195 (protein, listed as Mus musculus)
scFv: MKYLLPTAAAGLLLLAAQPAMAMGHHHHHHHHHHSSGHIDDDDKHMDVWLTQTPLSLPVSLGDQASISCRSSQTFVHSDGNTYLEWYLQKPGQSPKLLIYKISNRFSGVPDRFSGSGSGTDFTLKISGVEAEDLGLYYCFQGSHVPFTFGSGTKLEIRRADAAPTVSIFPPSSKLGPGGGGSGGGGSGGGGSELGRSQVQLQQSGAELVRPGASVTLSCKASGYTFIEYEMHWVKQAPVHGLEWIGAVDPETGGTAYNQKFKGKAILTADKSSSTGYMELRSLTSESSAVYYCARQGLGYWGQGTLVTVSA

Columns and labels:
HIV IN = HIV IN (Human immunodeficiency virus type 1 group M subtype B, UniProt P12497); settings: previous studies; cited from earlier work
ASV IN = ASV IN (Rous sarcoma virus subgroup C, UniProt P03354, K1536E/R1446K/V1381A); settings: previous studies; cited from earlier work
Chain of ASV IN (P03354 1281-1566 V1381A/R1446K/K1536E): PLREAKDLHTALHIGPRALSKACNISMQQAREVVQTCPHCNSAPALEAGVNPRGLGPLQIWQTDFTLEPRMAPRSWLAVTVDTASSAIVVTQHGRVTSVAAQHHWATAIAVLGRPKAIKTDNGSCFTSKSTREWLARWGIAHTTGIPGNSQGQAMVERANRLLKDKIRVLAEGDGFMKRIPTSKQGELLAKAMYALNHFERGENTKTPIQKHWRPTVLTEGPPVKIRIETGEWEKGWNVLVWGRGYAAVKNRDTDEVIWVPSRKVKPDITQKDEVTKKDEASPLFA

HIV IN (F181T) dimer = target: T1, HIV IN (F181T) dimer (Human immunodeficiency virus type 1 group M subtype B, UniProt P12497, F1328T); assay: FRET multimerization assay (reaching dimer formation); format: binding; settings: each at 1 μM; HIV IN (F181T) at 2 μM; relative to untreated control
T1 construct: made in house
Protocol: The effects of monoclonal antibodies and four small molecule inhibitors (each at 1 μM) are shown.
A multimerization assay based on fluorescence resonance energy transfer (FRET) between donor and acceptor dyes attached to C280 in HIV IN was used. The F181T substitution was introduced in order to monitor reaching dimer formation specifically (see Table 1 and FIGS. 9 and 11). One preparation was labeled with a donor fluorophore (Cy3) and a second with the acceptor (Cy5). Upon mixing (final conc. IN between 0.5 to 2 μM) and equilibration, the FRET efficiency obtained is consistent with the expected apparent distance of 60-65 Å in a reaching dimer. The Z′ factor of 0.7 obtained with this assay is in the “excellent” range for high throughput screening, and additional adjustments (e.g., use of alternative dye pairs, filter changes) may allow us to improve sensitivity even further. To validate the assay, the effects of monoclonal antibodies specific for the CTD (mAb33) or NTD (mAb17) of HIV IN were tested (FIG. 31). […] These preliminary results support the notion that compounds that either stabilize or block reaching dimer formation can result in inhibition of catalysis by IN.

| Molecule | inhibition of HIV IN (HIV IN) | inhibition of ASV IN (ASV IN) | effect on FRET-monitored IN self-association (reaching dimer formation) (HIV IN (F181T) dimer) |
| --- | --- | --- | --- |
| 2BrNSA | robust inhibition | robust inhibition | – |
| B1 | – | – | inhibit FRET-monitored self-association |
| B2 | – | – | inhibit FRET-monitored self-association |
